Laboratory results from patent US9393288B2, “Methods of treating diseases associated with PPARγ” (The University of Vermont and State Agricultural College, priority 2012, dated 2016).

Key:
Assay type in all cases: in vivo, rat
PPARγ target genes = experiment: PPARγ target gene expression (real-time qPCR) in adipose tissue, pial arteries and PA, NP Sprague Dawley rats
Excerpt: Animals and Treatment Groups: All procedures were approved by the Institutional Animal Care and Use Committee and conducted in accordance with the National Institutes of Health Guide for the Care and Use of Laboratory Animals. Female virgin NP Sprague Dawley rats (250-300 g, 14-16 weeks, Charles River, Canada) were used for all experiments and housed in the University of Vermont Animal Care Facility. Animals were randomly selected and grouped as untreated (N=4), treated with recombinant human relaxin-2 (relaxin, 4 μg/hr; N=14), relaxin plus a specific PPARγ inhibitor GW9662 (10 mg/kg daily in food; N=8), or vehicle (20 mM sodium acetate; N=14) for 10 days through osmotic minipumps (Alzet 2ML2, Durect Corp., Cupertino, Calif., USA). GW9662 treatment was started 1 day before and for the duration of relaxin treatment to ensure PPARγ was inhibited. Animals were anesthetized with 3% isoflurane and minipumps implanted subcutaneously in the back of the neck. All animals received post-surgical analgesic (buprenorphine, 50 μg/kg, s.c.). Relaxin infusion was continuous for 10 days until animals were euthanized for vessel experiments and tissue collection. The minipumps used were capable of delivering relaxin for 14 days and thus tissue collection was within this duration.
Determination of RXFP1 and PPARγ Target Gene Expression: MCA and PA from 4 untreated rats were collected to determine expression level of RXFP1, the primary relaxin receptor, using real-time qPCR methods. We also collected adipose tissue, pial arteries, and PA from vehicle, relaxin and relaxin+GW9662 groups (n=6 for each group) for determination of PPARγ target gene expression. All collected samples were stored in RNase inhibitor (1 unit/μl, RiboLock, Fermentas, Glen Burnie, Md., USA) at −80° C. for comparing expression of fatty acid translocase (FAT)/CD36 and liver X receptors-α (LXRα) for adipose tissue, and plasminogen activator inhibitor-1 (PAI-1) for vasculature. Standard techniques for real-time qPCR were performed by the Vermont Cancer Center DNA analysis facility at the University of Vermont, as described previously Cipolla et al. (2009) Stroke 40, 1451-1457. Briefly, RNA was extracted from tissues and concentration and integrity was determined by a NanoDrop ND-1000 Spectrophotometer (Wilmington, Del.) and an Agilent 2100 Bioanalyzer (Santa Clara, Calif., USA), respectively. Samples with low RNA quality were excluded. cDNA was then made by a SuperScript III Kit (Invitrogen, Carlsbad, Calif., USA). Real-time qPCR was set up as follows: 10 μL Universal PCR Master Mix (Applied Biosystems, Foster City, Calif., USA), 1 μL Assay on Demand (Applied Biosystems), 8 μL water, and 1 μL cDNA. β2-microglobulin (B2M, housekeeping control) and target genes were assessed using Assays on Demand from Applied Biosystems. […] Primers were designed across an exon-exon junction to avoid detecting genomic DNA. Thus, no DNase treatment of samples was necessary. All samples were run in duplicates using a 7900HT Sequence Detection System (Applied Biosystems). […]
Data Calculations and Statistical Analysis: Percent tone was calculated as percent decrease in ID from the passive diameter at each intravascular pressure: [1−(IDactive/IDpassive)]×100%. Outer diameter (OD) was calculated from measured ID and WT: ID+2WT. Cross-sectional area (CSA) of the wall was calculated as: [(OD/2)2−(ID/2)2]×π. Data from qPCR study were analyzed using the −2^ΔΔCT method, as described previously Livak et al. (2001) Methods 25, 402-408. […]

VEGF = VEGF expression in brain cortex (immunohistochemistry and qPCR), SHR; details: SHR-F-Rln vs SHR-F
Method: After dissecting PA and MCA for isolated vessel experiments, the remaining MCA, PA, and brain cortex from the MCA territory of 4-6 rats were collected and stored at −80° C. in RNase inhibitor (1 unit/μl, RiboLock, Fermentas, Glen Burnie, Md., USA) to determine mRNA expression levels of target genes using real-time qPCR methods. Target genes were assessed using Assays on Demand from Applied Biosystems. […] All primers were designed across an exon-exon junction to avoid detecting genomic DNA, so no DNase treatment was required. Housekeeping gene β-actin was used in all qPCR experiments as a control. Standard techniques for real-time qPCR were performed by the Vermont Cancer Center DNA analysis facility at the University of Vermont, as described previously (Cipolla, M. J., Smith, J., Kohlmeyer, M. M., and Godfrey, J. A. (2009) SKCa and IKCa Channels, myogenic tone, and vasodilator responses in middle cerebral arteries and parenchymal arterioles: effect of ischemia and reperfusion. Stroke 40, 1451-1457).
(§1) To investigate the mechanisms by which relaxin causes selectively remodeling of PA, mRNA expression of VEGF, MMP-2, and MMP-9 were compared between MCA, PA, brain cortex. To determine if relaxin activates peroxisome proliferator-activated receptor-gamma (PPARγ), expression levels of PPARγ target genes fatty acid binding protein-4 (FABP4) and plasminogen activator inhibitor-1 (PAI-1) were determined in mesenteric adipose tissue. Expression levels of PPARγ and its target genes PAI-1 and liver X receptors-α (LXR-α) were also determined in brain cortex (Chan, S. L., and Cipolla, M. J. (2012) Determination of PPARgamma activity in adipose tissue and spleen. J Immunoassay Immunochem 33, 314-324).
Brain cortex from the MCA region from WKY-F, SHR-F and SHR-F-Rln groups was collected and fixed in 4% formaldehyde for 48 hours at 4° C. and embedded in paraffin. Brain cortex was cut into 5 μm sections. […] Staining intensity was assessed using a semi-quantitative scoring system from 0 (lowest staining intensity) to 5 (highest staining intensity) in a blinded fashion. […]

MMP-2 = MMP-2 mRNA expression (qPCR) in brain cortex and PA, SHR; details: relaxin-treated SHR
Method: After dissecting PA and MCA for isolated vessel experiments, the remaining MCA, PA, and brain cortex from the MCA territory of 4-6 rats were collected and stored at −80° C. in RNase inhibitor (1 unit/μl, RiboLock, Fermentas, Glen Burnie, Md., USA) to determine mRNA expression levels of target genes using real-time qPCR methods. Target genes were assessed using Assays on Demand from Applied Biosystems. […] All primers were designed across an exon-exon junction to avoid detecting genomic DNA, so no DNase treatment was required. Housekeeping gene β-actin was used in all qPCR experiments as a control. […]
as §1

relaxin
Gene expression of CD36 in adipose tissue (PPARγ target genes; relaxin vs vehicle, NP rats): decreased | PAI-1 expression in pial arteries (PPARγ target genes; relaxin vs vehicle, NP rats): did not significantly change | PAI-1 expression in PA (PPARγ target genes; relaxin vs vehicle, NP rats, low sample numbers): did not significantly change | Gene expression of LXR-α in adipose tissue (PPARγ target genes; similar trend as CD36 (decrease with relaxin, normalized by GW9662)): not statistically significant | VEGF mRNA expression in brain cortex (VEGF): increased | VEGF immunoreactivity (staining intensity) in brain cortex (VEGF; p<0.05): significantly increased | VEGF mRNA expression in brain cortex (VEGF; listed as Relaxin): significantly increased | MMP-2 expression in brain cortex (MMP-2): increased
